The text below walks through data of patent US6376198B1, “Assay for non-peptide agonists to peptide hormone receptors” (New England Medical Center Hospitals, Inc., priority 1995, dated 2002).

One assay deals with rat CCK-A. To be noted: single experiment.
The next assay deals with Xenopus CCK receptor (Xenopus laevis, UniProt P70031). The note with it: single experiment. As to the method: COS-7 cells transfected with receptor cDNA-pcDNAI were cultured in inositol-free, serum-free Dulbecco's modified Eagle's medium (DMEM, GIBCO), supplemented with 3 μCi/ml ^3 H-myo-inositol (NEN, 45-80 Ci/mmol), for 18 hours prior to analysis. The cells were then washed twice with DMEM/10 mM LiCl2 and twice with phosphate-buffered saline/10 mM LiCl2. After stimulation with putative agonists in phosphate-buffered saline 10/mM LiCl2 for 30 minutes at 37° C., cells were scraped in ice-cold methanol. […] The upper phase was analyzed for inositol phosphates by strong anion exchange chromatography, using Dowex 1-X8 columns (BIORAD) and differential elution with water/60 mM ammonium fornate/2 M ammonium fornate. Eluted radioactivity was measured by liquid scintillation counting, and inositol phosphate content was expressed as a percentage of total ^3H-radioactivity applied to the columns.
Xenopus CCK receptor, sequence (P70031 whole entry): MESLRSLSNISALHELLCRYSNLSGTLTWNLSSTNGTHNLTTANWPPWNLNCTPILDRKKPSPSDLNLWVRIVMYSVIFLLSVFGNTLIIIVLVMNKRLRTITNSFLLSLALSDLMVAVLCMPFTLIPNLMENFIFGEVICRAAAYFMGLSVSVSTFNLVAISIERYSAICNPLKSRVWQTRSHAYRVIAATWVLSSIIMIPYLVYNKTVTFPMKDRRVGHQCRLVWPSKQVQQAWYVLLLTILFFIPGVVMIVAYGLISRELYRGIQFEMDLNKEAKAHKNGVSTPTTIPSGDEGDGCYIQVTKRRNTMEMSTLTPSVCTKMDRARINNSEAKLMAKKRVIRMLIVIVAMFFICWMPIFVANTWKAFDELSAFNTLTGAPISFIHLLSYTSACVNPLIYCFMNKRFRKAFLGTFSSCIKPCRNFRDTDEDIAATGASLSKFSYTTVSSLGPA
In FIG. 11, basal levels of inositol phosphate production were measured for human CCK-A hCCK-A), human CCK-B (hCCK-B), dog CCK-B (dCCK-B), mouse CCK-B (mCCK-B), and the mastomys CCK receptor (FIG. 11, part A), and expressed relative to the basal level of hCCK-B.
Single experiments were also performed for the rat CCK-B/gastrin receptor and for the related Xenopus CCK receptor (Table 2).

For assay [1], the target named is human wild-type CCK-B receptor (Homo sapiens, UniProt P32239). To be noted: 10^-7 M. Here is the method:
Measurement of [Ca^2+]: Forty-eight hours after transfection with hCCKB-pcDNAI, COS-7 cells were loaded with the Ca^2+ fluorophore fura-2 in modified Krebs-Ringer bicarbonate buffer. […] Extracellular calcium can be chelated with EGTA (2.5 mM) to confirm that a gastrin-induced increase in [Ca^2+] originates primarily from intracellular [Ca^2+] pools.

Assay [2] addresses T1, human CCK-B/gastrin receptor (wild-type) (Homo sapiens, UniProt P32239).
T1 construct: expressed in transfected cells; host or cells: COS-7
T1 sequence (P32239 1-447): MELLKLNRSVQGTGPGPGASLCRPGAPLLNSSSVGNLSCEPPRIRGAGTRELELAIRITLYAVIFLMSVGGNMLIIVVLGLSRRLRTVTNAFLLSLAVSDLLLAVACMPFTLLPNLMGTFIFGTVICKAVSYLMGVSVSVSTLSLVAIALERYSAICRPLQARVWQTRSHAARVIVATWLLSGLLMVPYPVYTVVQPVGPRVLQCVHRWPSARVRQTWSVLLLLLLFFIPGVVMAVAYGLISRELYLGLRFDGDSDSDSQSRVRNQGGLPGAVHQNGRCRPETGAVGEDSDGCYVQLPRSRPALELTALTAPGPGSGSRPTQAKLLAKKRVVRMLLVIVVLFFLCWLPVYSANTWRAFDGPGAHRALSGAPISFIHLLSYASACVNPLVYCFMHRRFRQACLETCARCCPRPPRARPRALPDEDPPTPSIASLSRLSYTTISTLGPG
Kind of assay: 125I-CCK-8 competition binding, COS-7 cells expressing wild-type receptor. The note with it: for Ratio (Wild-type/Mutant) of Ki: binding affinities; for Ki: wild-type receptor, read-out: Wild-type receptor Ki(nM), 125I CCK-8 binding affinity. As to the method:
(§1) The binding of a ligand to a CCK receptor, e.g., the CCK-A or the CCK-B/gastrin receptor, can be measured according to the following example. In this example, the binding affinity of a ligand to the human CCK-B/gastrin receptor is measured.
Twenty-four hours after transfection cells were split into 24-well dishes (2×10^4 cells/well) (Costar). After an additional 24 hours, competition binding experiments were performed in Hank's buffer supplemented with 25 mM phenylmethylsulfonyl fluoride (PMSF). […] Equilibrium binding occurred after incubation for 80 min. at 37° C. Cell monolayers were then washed three times, hydrolyzed in 1 N NaOH, and the amount of radioactivity to the receptor was quantified.
(§2) The competition data were analyzed using computer software which is specifically designed for the purpose of radioligand binding assays (Inplot 4.0, GraphPad, San Diego, Calif.).

For assay [3], the target named is T2, human CCK-B/gastrin receptor 325L→E mutant (Homo sapiens, UniProt P32239, L325E).
T2 construct: expressed in transfected cells; host or cells: COS-7
T2 sequence (P32239 1-447 L325E): T1 sequence (P32239 1-447) with L325E
Kind of assay: 125I-CCK-8 competition binding, COS-7 cells expressing constitutively active mutant. The note with it: read-out: 325L→E Mutant Ki(nM), 125I CCK-8 binding affinity. Here is the method:
as §1
Twenty-four hours after transfection cells were split into 24-well dishes (2×10^4 cells/well) (Costar). After an additional 24 hours, competition binding experiments were performed in Hank's buffer supplemented with 25 mM phenylmethylsulfonyl fluoride (PMSF). […] Equilibrium binding occurred after incubation for 80 min. at 37° C. Cell monolayers were then washed three times, hydrolyzed in 1 N NaOH, and the amount of radioactivity to the receptor was quantified. […] All binding experiments were repeated three to five times.
as §2

Assay [4] deals with T2, human CCK-B/gastrin receptor 325L→E mutant. Kind of assay: Total inositol phosphate production, COS-7 cells expressing constitutively active mutant. It counts as cell-based. The note with it: for intrinsic activity / functional classification: constitutively active 325L→E mutant; for IC50: 325L→E mutant, 95% C.I. in brackets, read-out: 325L→E Mutant IC50(nM) 95% C.I., signaling potency.

Assay [5] concerns the target T1, human CCK-B/gastrin receptor (wild-type). Briefly: Total inositol phosphate production, COS-7 cells expressing wild-type receptor. To be noted: for IC50: 95% C.I. in brackets, read-out: Wild-type receptor IC50(nM) 95% C.I., signaling potency. The format is cell-based.
Assay [6] addresses T3, mutant human CCK-A receptor pMHA35 (Homo sapiens, UniProt P32238, E138Q).
T3 construct: expressed in transfected cells; host or cells: COS-7 (inferred from the general inositol phosphate method)
T3 sequence (P32238 1-428 E138Q): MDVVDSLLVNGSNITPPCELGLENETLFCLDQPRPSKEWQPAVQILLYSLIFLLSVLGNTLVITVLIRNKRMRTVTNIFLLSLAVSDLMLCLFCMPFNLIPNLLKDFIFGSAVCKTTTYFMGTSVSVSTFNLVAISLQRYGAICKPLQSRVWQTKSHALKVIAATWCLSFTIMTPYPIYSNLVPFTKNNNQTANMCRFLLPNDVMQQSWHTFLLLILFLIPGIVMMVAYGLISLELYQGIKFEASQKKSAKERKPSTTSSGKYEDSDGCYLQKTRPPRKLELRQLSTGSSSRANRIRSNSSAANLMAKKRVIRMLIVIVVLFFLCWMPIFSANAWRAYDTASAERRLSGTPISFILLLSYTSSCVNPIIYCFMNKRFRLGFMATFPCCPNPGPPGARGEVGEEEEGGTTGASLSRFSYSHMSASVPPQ
Kind of assay: Intrinsic activity at mutant CCK-A receptor pMHA35 (138-ERY-140 to QRY). The note with it: basal signaling not increased. The format is cell-based. The source says: An example is given of a mutant human CCK-A receptor that enhances the intrinsic activity of the partial ‘peptoid’ agonist PD 135,158, yet causes no apparent increase in agonist-independent basal receptor activity, is the mutant CCK-A receptor pMHA35. pMHA35 was made by replacing amino acids 138-ERY-140 of the human wild-type CCK-A receptor with QRY in the vector pcDNAI. (See FIG. 2 for an illustration of the wild-type CCK-A receptor amino acid sequence.)
This method, based on alignment, was employed to construct a CCK-A mutant receptor. A multiple alignment map was made which included the human and rat CCK-A sequences, the mastomys, rat, human, and canine CCK-B/gastrin receptor, and a Xenopus CCK-A/CCK-B intermediate receptor (CCK-XL; FIG. 2). Based on this map, conserved amino acids 138-ERY-140 of the CCK-A receptor were replaced with amino acids QRY, based on a known constitutively active rhodopsin mutant with enhanced transducin activation (Arnis et al., J. Biol. Chem., 269:23879-81, 1994). The altered amino acid residues are positioned in transmembrane domain III and flank the second intracellular loop.

Residue numbers refer to the chain shown, from its start. “Also recorded” adds a separate entry of the source.

As for CCK-8s, the “CCK-8s stimulated (% human basal) inositol phosphate” value with rat CCK-A is recorded as 684 % human basal; on Xenopus CCK receptor it was 442 % human basal. For the same molecule, in assay [1], the “change in free cytosolic calcium [Ca2+]i” value is listed as “marked increase in free cytosolic calcium”.
For the molecule “azabicyclo[3.2.2]nonane benzodiazepine [L-740,093 R]”, in assay [2], the “Ratio (Wild-type/Mutant) of Ki” value is 1.06. Further, the Ki was 0.19 ± 0.02 nM in assay [2] and 0.18 ± 0.04 nM in assay [3]. For the same molecule, in assay [4], the “intrinsic activity / functional classification” value was “reduces the basal activity of the constitutively active receptor almost to wild-type levels”.
For the molecule `Cc1cccc(NC(=O)N[C@@H]2N=C(c3ccccc3)c3ccccc3N(CC(=O)c3ccccc3C)C2=O)c1` [YM022], in assay [2], the “Ratio (Wild-type/Mutant) of Ki” value turned out to be 0.88. Moreover, the Ki in assay [2] came to 0.07 ± 0.01 nM; in assay [3] it was 0.08 ± 0.01 nM. The results for the “intrinsic activity / functional classification” value in assay [5] (wild-type receptor) and in assay [4] were “almost no intrinsic activity” and “almost no intrinsic activity; also recorded: weak inverse agonist”, respectively. The “pA2, block of CCK-8s induced inositol phosphate production” value in assay [5] (wild-type receptor, agonist CCK-8s) came out at 9.78; in assay [4] (constitutively active receptor, agonist CCK-8s) it was 9.37. Besides, in assay [4] (constitutively active receptor, agonist L-740,093 S (FIG. 4)), the “pA2, block of L-740,093 S induced inositol phosphate production” value worked out at 9.54.
With `CC1(C)[C@H]2CC[C@@]1(C)[C@H](OC(=O)N[C@](C)(Cc1c[nH]c3ccccc13)C(=O)NC[C@H](NC(=O)CCC(=O)O)c1ccccc1)C2` [PD 135,158], in assay [2], the “Ratio (Wild-type/Mutant) of Ki” value is listed as 2.23 and the Ki was 2.25 ± 0.61 nM. For the same molecule, the “intrinsic activity at mutant versus wild-type CCK-A receptor” value in assay [6] was “significantly increased”. Moreover, the Ki in assay [3] was determined as 1.01 ± 0.19 nM. In addition, the “Ratio (Wild-type/Mutant) of signaling potencies” value in assay [5] came to 1.04. Further, in assay [5] (wild-type receptor), the “intrinsic activity / functional classification” value is “partial agonists” and the IC50 turned out to be 1.05 nM. Also, in assay [4], the concentration for half-maximal inhibition (IC50) came out at 1.01 nM and the “intrinsic activity / functional classification” value is “almost full agonists”.
On to `C[C@](Cc1c[nH]c2ccccc12)(NC(=O)OC1C2CC3CC(C2)CC1C3)C(=O)NC[C@H](NC(=O)/C=C/C(=O)O)c1ccccc1` (stereo partly drawn) [PD 136,450], for which, in assay [2], the “Ratio (Wild-type/Mutant) of Ki” value stood at 1.68 and the inhibition constant (Ki) stood at 0.99 ± 0.1 nM. In addition, in assay [3], the Ki amounted to 0.59 ± 0.12 nM. Besides, in assay [5], the “Ratio (Wild-type/Mutant) of signaling potencies” value is 0.62. For the same molecule, in assay [5] (wild-type receptor), the “intrinsic activity / functional classification” value is “partial agonists” and the 50% inhibitory concentration (IC50) stood at 0.36 nM. Further, in assay [4], the IC50 came to 0.58 nM and the “intrinsic activity / functional classification” value is “almost full agonists”.
As for `Cc1cccc(NC(=O)N[C@@H]2N=C(c3ccccc3)c3ccccc3N(C)C2=O)c1` [L-365,260], the “intrinsic activity / functional classification” value in assay [5] (wild-type receptor) is “barely detectable, yet significant, increase in inositol phosphate production”. Moreover, the “efficacy compared to the full agonist CCK-8s (inositol phosphate)” value in assay [4] (325L→E constitutively active mutant) amounted to 62%.
Take “azabicyclo[3.2.2]nonane benzodiazepine [L-740,093 S]”: in assay [2], the “Ratio (Wild-type/Mutant) of Ki” value was 1.22 and the inhibition constant Ki amounted to 19.5 ± 1.5 nM. For the same molecule, the Ki in assay [3] was 16 ± 1.4 nM. In addition, the “efficacy compared with CCK-8s (inositol phosphate)” value in assay [5] (human wild-type receptor) is recorded as 25%. In addition, in assay [4], the “intrinsic activity / functional classification” value was “almost a full agonist”.

By Ki is commonly meant a measure of affinity in units of concentration, obtained from inhibition or displacement. As usually defined, the IC50 is the concentration that inhibits the measured activity by half.
